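96-well plates; 48 h exposure; 5 concentrations. Endpoints by linear interpolation between flanking doses. Not reached: highest tested concentration assigned. Definition used: TGI = concentration required for complete inhibition of growth.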
Assays:
Assay in all cases: NCI anticancer screen, dose series, 48 h
[1] = test system: NCI-H23 lung
[2] = test system: HS 578T breast
[3] = test system: KM12 colon
[4] = test system: HL-60(TB) leukemia
[5] = test system: MALME-3M melanoma
[6] = test system: SK-MEL-2 melanoma
[7] = test system: SNB-75 CNS
[8] = test system: RPMI-8226 leukemia
[9] = test system: A549 NSCLC
[10] = test system: T-47D breast
[11] = test system: SK-MEL-28 melanoma
[12] = test system: ACHN renal
[13] = test system: MDA-N
[14] = test system: SK-MEL-5 melanoma
[15] = test system: HCT-116 colon
[16] = test system: OVCAR-8 ovarian
[17] = test system: SW-620 colon
[18] = test system: RXF 393 renal
[19] = test system: MDA-MB-231 breast
[20] = test system: OVCAR-4 ovarian
[21] = test system: NCI-H522 lung
[22] = test system: SNB-19 CNS
[23] = test system: U251 CNS
[24] = test system: UO-31 renal
[25] = test system: SK-OV-3 ovarian
[26] = test system: K-562 leukemia
[27] = test system: BT-549 breast
[28] = test system: OVCAR-5 ovarian
[29] = test system: HCT-15 colon
[30] = test system: TK-10 renal
[31] = test system: MCF7 breast
[32] = test system: LOX IMVI melanoma
[33] = test system: MDA-MB-435
[34] = test system: HOP-62 NSCLC
[35] = test system: SN12C renal
[36] = test system: M14 melanoma
[37] = test system: A498 renal
[38] = test system: PC-3 prostate
[39] = test system: NCI/ADR-RES ovarian
[40] = test system: IGROV1 ovarian
[41] = test system: SF-268 CNS
[42] = test system: UACC-257 melanoma
[43] = test system: 786-0 renal
[44] = test system: HT29 colon
[45] = test system: CAKI-1 renal
[46] = test system: DU-145 prostate
[47] = test system: UACC-62 melanoma
[48] = test system: COLO 205 colon
[49] = test system: EKVX NSCLC
[50] = test system: SF-295 CNS
[51] = test system: CCRF-CEM leukemia
[52] = test system: NCI-H226 lung
[53] = test system: NCI-H460 lung
[54] = test system: SF-539 CNS
[55] = test system: OVCAR-3 ovarian
[56] = test system: HCC-2998 colon
[57] = test system: MOLT-4 leukemia
[58] = test system: SR leukemia

Measured: TGI

Cc1ccc(C(=O)Nc2ccc(CP(=O)(O)O)cc2CP(=O)(O)O)cc1NC(=O)Nc1cc(C(=O)Nc2ccc(CP(=O)(O)O)cc2CP(=O)(O)O)ccc1C
not listed: [57] | [58]
> 100 µM: all other assays above

O=C(N=c1ccc2nc(=O)[nH]n(O)c-2c1)C(F)(F)F
not listed: [5] | [18] | [56]
> 100 µM: all other assays above

Source: PubChem BioAssay (NCI)
